Assay results published in US20240277658A1, “NLRP3 ACTIVATORS FOR USE IN THE TREATMENT OF INFECTIOUS DISEASES OR CANCER BY ACTIVATING NLRP3 INFLAMMASOME” (ALBERT-LUDWIGS-UNIVERSITÄT FREIBURG, priority 2020, published 2024).
Values joined by “and” are separate entries in the source; they are usually repeats but may differ in a detail not shown here. Equal values may be shown once. Read-outs that look alike come from different tables or passages of the source.

How the values were obtained:
NLRP3 inflammasome = biological target: T1, NLRP3 inflammasome (Mus musculus, UniProt Q8R4B8); test: IL-1β release from LPS-primed BMDCs (ELISA) as readout of NLRP3 inflammasome activation; format: cell-based
T1 construct: endogenous in cells; host or cells: primary mouse bone marrow-derived dendritic cells (BMDCs), LPS-primed
Procedure, shortened: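 NLRP3 inflammasome activation was read out as IL-1β released into the supernatant, measured by ELISA. Murine BMDCs were primed with LPS (50 ng ml^−1, 3 hours), then incubated with compounds for 3 hours, with each condition run in three technical replicates. Nigericin at 5 μM acted as the positive control activator, and IL-1β release was also expressed as a percentage of that control.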

BMDCs = test: LDH release (lytic cell death, pyroptosis) from LPS-primed BMDCs; format: cell-based, mouse; conditions: for Average (% positive control): LDH release
Procedure, shortened: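 LDH released into medium, detected colorimetrically, served as the pyroptosis read-out in triplicate. LPS-primed (50 ng ml^−1, 3 h) murine bone marrow-derived dendritic cells received test compounds, typically 50 μM, or nigericin (5 μM), R837 or CL097 (100 μM) for 3 hours.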

[1] = IL-1β release, compound 50 μM, positive control nigericin 5 μM
[2] = compound 50 μM, LPS-primed BMDCs
[3] = single replicates, compound 50 μM, LPS-primed BMDCs
[4] = compound 50 μM, positive control nigericin 5 μM
[5] = Mus musculus, BMDC, compound 50 μM, LPS-primed BMDCs, read-out: Average LDH release (% of max.)
[6] = Mus musculus, BMDC, single replicates, compound 50 μM, LPS-primed BMDCs, read-out: LDH release (% of max.)

T1 sequence (Q8R4B8 whole entry): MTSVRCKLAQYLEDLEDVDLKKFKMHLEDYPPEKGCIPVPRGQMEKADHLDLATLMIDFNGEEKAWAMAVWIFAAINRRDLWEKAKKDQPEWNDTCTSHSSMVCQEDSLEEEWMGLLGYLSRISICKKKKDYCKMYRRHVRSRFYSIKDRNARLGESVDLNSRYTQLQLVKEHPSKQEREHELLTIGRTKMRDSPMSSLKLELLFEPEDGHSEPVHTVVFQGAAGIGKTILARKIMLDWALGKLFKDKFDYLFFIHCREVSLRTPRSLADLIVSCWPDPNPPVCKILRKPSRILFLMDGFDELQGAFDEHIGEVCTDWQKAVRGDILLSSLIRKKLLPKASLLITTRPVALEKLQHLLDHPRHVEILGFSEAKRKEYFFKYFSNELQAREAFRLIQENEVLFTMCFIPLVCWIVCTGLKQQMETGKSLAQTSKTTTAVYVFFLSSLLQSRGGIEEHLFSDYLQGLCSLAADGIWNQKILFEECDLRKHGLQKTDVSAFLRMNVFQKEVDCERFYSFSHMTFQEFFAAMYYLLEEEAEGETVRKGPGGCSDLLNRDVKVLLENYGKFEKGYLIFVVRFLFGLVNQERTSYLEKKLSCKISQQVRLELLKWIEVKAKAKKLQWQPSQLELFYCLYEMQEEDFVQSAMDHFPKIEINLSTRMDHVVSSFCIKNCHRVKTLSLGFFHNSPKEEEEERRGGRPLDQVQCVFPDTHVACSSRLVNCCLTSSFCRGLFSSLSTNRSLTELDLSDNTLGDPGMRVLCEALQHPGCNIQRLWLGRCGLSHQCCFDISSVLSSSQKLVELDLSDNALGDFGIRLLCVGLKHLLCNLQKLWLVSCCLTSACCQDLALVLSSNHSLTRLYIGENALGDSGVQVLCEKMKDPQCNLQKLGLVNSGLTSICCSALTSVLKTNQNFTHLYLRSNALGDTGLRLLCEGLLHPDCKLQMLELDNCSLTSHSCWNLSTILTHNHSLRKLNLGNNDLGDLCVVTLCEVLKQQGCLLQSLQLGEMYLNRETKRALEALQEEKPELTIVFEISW

SMILES	Average (% positive control) (NLRP3 inflammasome; [1])	Average IL-1β (NLRP3 inflammasome; [2]) [ng/mL]	IL-1β (NLRP3 inflammasome; [3])	Average (% positive control) (BMDCs; [4])	cytotoxicity at 50 µM (BMDCs; [5]) [%]	cytotoxicity at 50 µM (BMDCs; [6]) [%]	also measured
O=C(NCc1ccccc1)NCc1ccc2ncccc2c1 [EN11-11, 3-benzyl-1-[(quinolin-6-yl)methyl]urea]							Average IL-1β (NLRP3 inflammasome; 25 μM, EN11 series table): 0.000 ng/mL; IL-1β (NLRP3 inflammasome; 25 μM, individual replicate values, EN11 series table): 0.000 ng/mL; Average IL-1β (NLRP3 inflammasome; 50 μM, EN11 series table): 0.014 ng/mL; IL-1β (NLRP3 inflammasome; 50 μM, individual replicate values, EN11 series table): 0.021 ng/mL and 0.022 ng/mL and 0.000 ng/mL; Average IL-1β (NLRP3 inflammasome; 100 μM): 0.011 ng/mL; IL-1β (NLRP3 inflammasome; 100 μM, individual replicate values): 0.012 ng/mL and 0.021 ng/mL and 0.000 ng/mL; Average (% positive control) (NLRP3 inflammasome; IL-1β, 25 μM, positive control EN22 25 μM): 0.000 % positive control; Average (% positive control) (NLRP3 inflammasome; IL-1β, 50 μM, positive control EN22 25 μM): 0.975 % positive control; Average (% positive control) (NLRP3 inflammasome; IL-1β, 100 μM, positive control EN22 25 μM): 0.761 % positive control; Average (% positive control) (BMDCs; 25 μM, positive control EN22 25 μM): 8.741 % positive control; Average (% positive control) (BMDCs; 50 μM, positive control EN22 25 μM): 8.257 % positive control; Average (% positive control) (BMDCs; 100 μM, positive control EN22 25 μM): 10.723 % positive control; cytotoxicity at 25 µM (BMDCs; Mus musculus, BMDC, 25 μM, EN11 series table, read-out: Average LDH release (% of max.)): 4.45%; cytotoxicity at 50 µM (BMDCs; Mus musculus, BMDC, 50 μM, EN11 series table, read-out: Average LDH release (% of max.)): 4.2%; cytotoxicity at 100 µM (BMDCs; Mus musculus, BMDC, 100 μM, individual replicate values, read-out: LDH release (% of max.)): 5.91%; cytotoxicity at 100 µM (BMDCs; Mus musculus, BMDC, 100 μM, read-out: Average LDH release (% of max.)): 5.45%
CC(C)C(NC(=O)Nc1ccc2c(c1)COC2)c1nc(-c2cccnc2)no1 (stereo not shown) [L01.114, 3-(1,3-dihydro-2-benzo-furan-5-yl)-1-{2-meth-yl-1-[3-(pyridin-3-yl)-1,2,4-oxadiazol-5-yl]-propyl}urea]	1.049	0.075	0.073 ng/mL and 0.081 ng/mL and 0.072 ng/mL	12.801	9.37	9.46	
O=C(Nc1ccccc1)Nc1ccc(NC(=O)c2ccoc2)cc1 [L01.092, N-{4-[(phenylcarbamo-yl)amino]phenyl}furan-3-carboxamide]	15.066	1.080	1.253 ng/mL and 1.060 ng/mL and 0.927 ng/mL	20.483	15	16.4	
N#CCOc1ccc(NC(=O)Nc2ccccc2)cc1 [L01.002, 1-[4-(cyanomethoxy)-phenyl]-3-phenylurea]	2.590	0.186	0.144 ng/mL and 0.249 ng/mL and 0.164 ng/mL	13.662	9.99	8.07	
O=C(Nc1ccccc1Cl)Nc1ccc([N+](=O)[O-])cc1Cl [A.C2, 3-(2-chloro-4-nitrophen-yl)-1-(2-chlorophenyl)-urea]							Average IL-1β (NLRP3 inflammasome; 18.75 μM): 0.118 ng/mL; IL-1β (NLRP3 inflammasome; 18.75 μM, individual replicate values): 0.128 ng/mL and 0.116 ng/mL and 0.111 ng/mL; Average IL-1β (NLRP3 inflammasome; 37.5 μM): 0.361 ng/mL; IL-1β (NLRP3 inflammasome; 37.5 μM, individual replicate values): 0.377 ng/ml and 0.353 ng/ml (2×); Average IL-1β (NLRP3 inflammasome; 75 μM): 0.525 ng/mL; IL-1β (NLRP3 inflammasome; 75 μM, individual replicate values): 0.459 ng/mL and 0.546 ng/mL and 0.571 ng/mL; Average (% positive control) (NLRP3 inflammasome; IL-1β, 18.75 μM, positive control EN22 18.75 μM): 1.870 % positive control; Average (% positive control) (NLRP3 inflammasome; IL-1β, 37.5 μM, positive control EN22 18.75 μM): 5.712 % positive control; Average (% positive control) (NLRP3 inflammasome; IL-1β, 75 μM, positive control EN22 18.75 μM): 8.308 % positive control; cytotoxicity at 18.75 µM (BMDCs; Mus musculus, BMDC, section 1.4, 18.75 μM, read-out: Average LDH release (% of max.)): 17.8%; cytotoxicity at 37.5 µM (BMDCs; Mus musculus, BMDC, section 1.4, 37.5 μM, read-out: Average LDH release (% of max.)): 45.7%; cytotoxicity at 75 µM (BMDCs; Mus musculus, BMDC, section 1.4, 75 μM, read-out: Average LDH release (% of max.)): 75.8%; cytotoxicity at 18.75 µM (BMDCs; Mus musculus, BMDC, section 1.4, single replicates, 18.75 μM, read-out: LDH release (% of max.)): 18.4%; cytotoxicity at 37.5 µM (BMDCs; Mus musculus, BMDC, section 1.4, single replicates, 37.5 μM, read-out: LDH release (% of max.)): 46.6%; cytotoxicity at 75 µM (BMDCs; Mus musculus, BMDC, section 1.4, single replicates, 75 μM, read-out: LDH release (% of max.)): 77.1%; Average (% positive control) (BMDCs; section 1.4, 18.75 μM, positive control EN22 18.75 μM): 24.912 % positive control; Average (% positive control) (BMDCs; section 1.4, 37.5 μM, positive control EN22 18.75 μM): 64.016 % positive control; Average (% positive control) (BMDCs; section 1.4, 75 μM, positive control EN22 18.75 μM): 106.244 % positive control
Cc1ccc(N2C(=O)N(Cc3nc(-c4ccc(F)cc4)no3)C(=O)C2C)cc1 (stereo not shown) [L01.130, 3-{[3-(4-fluorophenyl)-1,2,4-oxadiazol-5-yl]-methyl}-5-methyl-1-(4-methylphenyl)imidazol-idine-2,4-dione]	4.350	0.312	0.404 ng/mL and 0.317 ng/mL and 0.215 ng/mL	11.646	8.52	9.39	
O=C(NCc1nc(-c2cccs2)no1)Nc1ccccc1 [L01.087, 1-phenyl-3-{[3-(thio-phen-2-yl)-1,2,4-oxadiazol-5-yl]meth-yl}urea]	3.589	0.257	0.237 ng/mL and 0.239 ng/mL and 0.296 ng/mL	9.562	7	6.79	
COc1cccc(NC(=O)N(C)Cc2nc(-c3cccnc3)no2)c1 [L01.136, 1-(3-methoxyphenyl)-3-methyl-3-{[3-(pyridin-3-yl)-1,2,4-oxadiazol-5-yl]methyl}urea]	1.025	0.073	0.064 ng/mL and 0.073 ng/mL and 0.083 ng/mL	9.465	6.92	6.95	
CC(C)C(NC(=O)Nc1ccc(Cl)cc1)c1nc(-c2ccccc2)no1 (stereo not shown) [L01.097, 1-(4-chlorophenyl)-3-[2-methyl-1-(3-phenyl-1,2,4-oxadiazol-5-yl)-propyl]urea]	1.765	0.126	0.121 ng/mL and 0.143 ng/mL and 0.116 ng/mL	51.271	37.5	39.5	
